Tested on: HeLa cells
Assay: mitosis assay with HeLa cell-line stably expressing PCNA3p16-GFP (clone 9.6)
Format: cell-based, human
Settings: 0.1 μg/ml, 13 h time series, 30 min intervals
Description: HeLa cell-lines stably expressing PCNA3p16-GFP (clone 9.6; amino acid sequence of SEQ ID NO: 2 fused to GFP) were seeded at 50% confluency in live cell imaging chamber (ibidi μ-Slide 8 well). After incubation over night, normal growth medium (DMEM+10% FCS) was replaced with CO2 adapted live-cell medium (DMEM without phenol red+10% FCS+25 mM Hepes Buffer). Subsequently the imaging slide was placed on an INCell Analyzer 1000 (GE Healthcare) high content microscope equipped with an environmental control chamber, adjusted to 37° C. and 5% CO2. Images were acquired with an 20X/0.45 NA air objective using the appropriate filterset for the fluorescent protein GFP (HQ480—40X/HQ535—50M) and an exposure time of 750 ms. For the live cell imaging 15 fields of view per well were selected and a 13 hour time series started with time intervals of 30 min. After the first time point 0.1 μg/ml Colcemid was added directly to the medium of one well; control cells were left untreated (FIG. 11A). Colcemid is a mitotic inhibitor drug such as Colchicine, which depolymerises microtubules and limits microtubule formation (inactivates spindle fibre formation), thus arresting cells in metaphase.
The acquired data set was analyzed with the automated image evaluation and quantification program INCell workstation. […] The amount of mitotic cells per time point was counted and evaluated.

How did the “mitotic cells in treated cell population” value turn out when `CN[C@H]1CCc2cc(OC)c(OC)c(OC)c2-c2ccc(OC)c(=O)cc21` [colcemid, Colcemid] was run?
The value was “increase of mitotic cells”.

Reference: patent US8999669B2, “Detection and visualization of the cell cycle in living cells” (Ludwig-Maximilians Universitat München, priority 2009, dated 2015)
